This note sets out measurements from patent US20110053933A1, “HYDROXYQUINOXALINECARBOXAMIDE DERIVATIVE” (DAIICHI SANKYO COMPANY, LIMITED, priority 2008, published 2011).

Structures are written as SMILES.

This experiment concerns γ-glutamyl carboxylation reaction (human Gas6 in Gas6-HEK293 cells). Nature of the experiment: Inhibitory action on γ-glutamyl carboxylation reaction (secreted γ-glutamyl carboxylated Gas6 by ELISA). Type of experiment: cell-based. Conditions: vitamin K2 100 nM, exposure 18 to 20 hours, ELISA absorbance at 620 nm, read-out: IC50 (50% inhibitory concentration for the γ-glutamyl carboxylation reaction). On the procedure: Measurement of Inhibitory Action on γ-Glutamyl Carboxylation Reaction
Cells were used that expressed Gas6 excreted outside the cells when subjected to γ-glutamyl carboxylation, and inhibitory action on γ-glutamyl carboxylation reaction was assessed by measuring the secreted amount of extracellular Gas6 by ELISA method.
(A) Preparation for Assay Plate Containing Solid-Phase Anti-Human Gas6 Antibody
Goat anti-human Gas6 antibody (R&D Systems, Inc.) was diluted to 1 μg/ml with Dulbecco's phosphate-buffered saline, and 40 μl aliquots thereof were dispensed into each well of a 384-well microplate. After immobilizing the antibody to the solid phase by allowing it to stand at 4° C. overnight or at room temperature for 2 hours or more, each well was washed three times with wash buffer (10 mM Tris-HCl pH 7.4, 150 mM sodium chloride, 0.05% Tween20). After removing the supernatant, 80 μl aliquots of a 1% aqueous solution of Block Ace (Dainippon Sumitomo Pharma) were dispensed into each well and allowed to react at room temperature for 1 hour or more.
(B) Exposure of Test Compounds to Cells Stably Expressing Human Gas6
Cells that stably express human Gas6 (Gas6-HEK293), which were prepared by inserting human Gas6 gene (inserted between SalI and NotI within multiple cloning sites of pCIneo expression vector) into HEK293 cells, were grown and sub-cultured using Dulbecco's modified Eagle's medium (DMEM) containing 10% fetal calf serum (FCS). On the day before ELISA measurement, the Gas6-HEK293 cells were detached with trypsin-EDTA, dispersed in DMEM containing 10% FCS, and disseminated into each well of a 384-well, collagen type I-coated plate (Becton-Dickinson) in 30 μl aliquots containing 1.0×10^4 cells each, followed by culturing for 3 to 4 hours at 5% CO2 and 37° C. 30 μl aliquots of DMEM containing test compound solutions, prepared at various concentrations by dissolving in DMSO, and vitamin K2 at 0.1% and 100 nM, respectively (indicating final concentrations in both cases) were added to each well followed by additionally culturing for 18 to 20 hours.
(C) Quantification of γ-Glutamyl Carboxylated Gas6 by ELISA and Calculation of 50% Inhibitory Concentrations of γ-Glutamyl Carboxylation Reaction
After removing the 1% Block Ace aqueous solution from the preliminarily prepared assay plates containing solid phase anti-human Gas6 antibody, the culture supernatant of Gas6-HEK293 cells exposed to the test compounds was collected and 40 μl aliquots were dispensed into each well followed by allowing to react at room temperature for 2 hours (Step 1). The culture supernatant was removed and each well was washed three times with wash buffer. Thereafter, the same washing procedure was carried out between Steps 2 and 3 and Steps 3 and 4. Subsequently, 40 μl aliquots of mouse anti-human […] antibody (American Diagnostica inc.), adjusted to 0.5 μg/ml with immunoreaction buffer (100 mM Tris-HCl pH 7.4, 0.05% Tween20, 0.1% Block Ace), were dispensed into each well and allowed to react at room temperature for 1 hour (Step 2). Next, 40 μl aliquots of alkaline phosphatase-conjugated anti-mouse IgG antibody adjusted to 1.0 μg/ml with immunoreaction buffer were dispensed into each well and allowed to react at room temperature for 1 hour (Step 3). 40 μl aliquots of BluePhos Microwell (KPL) were dispensed into each well, and after incubating at room temperature for 10 minutes (Step 4), 20 μl aliquots of 5% EDTA were added to each well to stop the color development reaction, followed by measurement of absorbance at 620 nm (Step 5). […]
On the technique in general: In an ELISA, binding on a coated surface is turned into a signal by an enzyme label.
Take `CC(C)[C@H](NC(=O)c1nc2ccccc2nc1O)C(=O)N1CCC(Sc2ccc(F)cc2)CC1` [Example 45, N-[(1S)-1-({4-[(4-Fluorophenyl)thio]piperidin-1-yl}carbonyl)-2-methylpropyl]-3-hydroxyquinoxaline-2-carboxamide]: the IC50 amounted to 1.3 nM.

Regarding `CC(C)[C@H](NC(=O)c1nc2ccccc2nc1O)C(=O)N1CCC(Oc2ncc(F)cc2F)CC1` [Example 49, N-[(1S)-1-({4-[(3,5-Difluoropyridin-2-yl)oxy]piperidin-1-yl]carbonyl)-2-methylpropyl}-3-hydroxyquinoxaline-2-carboxamide], the IC50 stood at 4.3 nM.

As to `CC(C)[C@H](NC(=O)c1nc2ccccc2nc1O)C(=O)N1CCC(C(=O)c2ccc(F)cc2)CC1` [Example 61, N-[(1S)-1-{[4-(4-Fluorobenzoyl)piperidin-1-yl]carbonyl}-2-methylpropyl]-3-hydroxyquinoxaline-2-carboxamide], the IC50 is 5.1 nM.

Take `CC(C)[C@H](NC(=O)c1nc2ccccc2nc1O)C(=O)N1CCC(Oc2ccc(C(F)(F)F)cc2)CC1` [Example 62, 3-Hydroxy-N-[(1S)-2-methyl-1-({4-[4-(trifluoromethyl)phenoxy]piperidin-1-yl}carbonyl)propyl]quinoxaline-2-carboxamide]: the IC50 was 3.6 nM.

Regarding `CC(C)[C@H](NC(=O)c1nc2ccccc2nc1O)C(=O)N1CCC(Oc2ncc(Br)cn2)CC1` [Example 65, N-[(1S)-1-({4-[(5-Bromopyrimidin-2-yl)oxy]piperidin-1-yl}carbonyl)-2-methylpropyl]-3-hydroxyquinoxaline-2-carboxamide], the IC50 came out at 20 nM.

Consider `CC(C)[C@H](NC(=O)c1nc2ccccc2nc1O)C(=O)N1CCC(C(=O)c2ccc(F)cc2O)CC1` [Example 67, N-[(1S)-1-{[4-(4-Fluoro-2-hydroxybenzoyl)piperidin-1-yl]carbonyl}-2-methylpropyl]-3-hydroxyquinoxaline-2-carboxamide], for which the IC50 was 0.75 nM.

As to `CC(C)(O)[C@H](NC(=O)c1nc2ccccc2nc1O)C(=O)N1CCC(Oc2ccc(F)cc2)CC1` [Example 69, N-[(1S)-1-{[4-(4-Fluorophenoxy)piperidin-1-yl]carbonyl}-2-hydroxy-2-methylpropyl]-3-hydroxyquinoxaline-2-carboxamide], the IC50 was found to be 3.4 nM.

Consider `CC(C)[C@H](NC(=O)c1nc2ccc(F)cc2nc1O)C(=O)N1CCC(Oc2ccc(F)cc2)CC1` [Example 74, N-[(1S)-1-{[4-(4-Fluorophenoxy)piperidin-1-yl]carbonyl}-2-methylpropyl]-6-fluoro-3-hydroxyquinoxaline-2-carboxamide], for which the IC50 turned out to be 5.5 nM.

`CC(C)[C@H](NC(=O)c1nc2ccccc2nc1O)C(=O)N1CCC(Oc2ncc(-c3ccccc3)cn2)CC1` [Example 80, 3-Hydroxy-N-[(1S)-2-methyl-1-({4-[(5-phenylpyrimidin-2-yl)oxy]piperidin-1-yl}carbonyl)propyl]quinoxaline-2-carboxamide]: the IC50 came to 7.1 nM.

Take `CC(C)[C@H](NC(=O)c1nc2ccccc2nc1O)C(=O)N1CCC(Oc2cnc(-c3ccccc3)nc2)CC1` [Example 81, 3-Hydroxy-N-[(1S)-2-methyl-1-({4-[(2-phenylpyrimidin-5-yl)oxy]piperidin-1-yl}carbonyl)propyl]quinoxaline-2-carboxamide]: the IC50 was determined as 4.6 nM.

For the compound `CC(C)[C@H](NC(=O)c1nc2ccccc2nc1O)C(=O)N1CCC(Oc2ncc(Br)cn2)C(C)(C)C1` (stereo partly drawn) [Example 82, N-[(1S)-1-({4-[(5-Bromopyrimidin-2-yl)oxy]-3,3-dimethylpiperidin-1-yl}carbonyl)-2-methylpropyl]-3-hydroxyquinoxaline-2-carboxamide], the IC50 was determined as 4.6 nM.

For `CC(C)[C@H](NC(=O)c1nc2ccccc2nc1O)C(=O)N1CCC(Oc2ccc(C(F)(F)F)nc2)CC1` [Example 84, 3-Hydroxy-N-{(1S)-2-methyl-1-[(4-{[6-(trifluoromethyl)pyridin-3-yl]oxy}piperidin-1-yl)carbonyl]propyl}quinoxaline-2-carboxamide], the IC50 was determined as 5.5 nM.
